Laboratory results published in ChEMBL document CHEMBL1128818, “Synthesis and antiplatelet activity of DMP 757 analogs” (Bioorg Med Chem Lett, 1995).

Target: Integrin alpha-IIb/beta-3 (Homo sapiens, UniProt P05106+P08514)
Assay: Inhibition of platelet aggregation in vitro using fibrinogen binding assay

Integrin alpha-IIb/beta-3, sequence (P05106 27-788 limits assumed): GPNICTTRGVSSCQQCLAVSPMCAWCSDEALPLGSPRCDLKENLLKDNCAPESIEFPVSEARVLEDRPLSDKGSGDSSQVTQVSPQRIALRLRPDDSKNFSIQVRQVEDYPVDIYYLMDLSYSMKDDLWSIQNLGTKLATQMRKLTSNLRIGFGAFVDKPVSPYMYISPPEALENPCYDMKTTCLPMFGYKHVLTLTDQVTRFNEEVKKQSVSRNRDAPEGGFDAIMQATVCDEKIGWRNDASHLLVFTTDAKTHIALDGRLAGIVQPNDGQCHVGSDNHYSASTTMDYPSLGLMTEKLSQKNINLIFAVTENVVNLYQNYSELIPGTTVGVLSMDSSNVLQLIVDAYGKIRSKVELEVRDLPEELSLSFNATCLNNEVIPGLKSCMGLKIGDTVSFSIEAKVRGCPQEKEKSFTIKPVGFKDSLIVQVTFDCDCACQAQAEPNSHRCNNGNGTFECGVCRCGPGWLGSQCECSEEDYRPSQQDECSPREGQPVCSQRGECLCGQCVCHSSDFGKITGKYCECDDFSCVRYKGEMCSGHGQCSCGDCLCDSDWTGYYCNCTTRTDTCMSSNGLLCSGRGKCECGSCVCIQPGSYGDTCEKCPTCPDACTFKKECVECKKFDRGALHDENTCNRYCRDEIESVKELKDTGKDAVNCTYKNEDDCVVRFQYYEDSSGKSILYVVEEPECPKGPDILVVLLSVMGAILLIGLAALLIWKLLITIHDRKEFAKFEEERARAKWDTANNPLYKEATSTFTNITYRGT
Integrin alpha-IIb/beta-3, sequence (P08514 32-887 limits assumed): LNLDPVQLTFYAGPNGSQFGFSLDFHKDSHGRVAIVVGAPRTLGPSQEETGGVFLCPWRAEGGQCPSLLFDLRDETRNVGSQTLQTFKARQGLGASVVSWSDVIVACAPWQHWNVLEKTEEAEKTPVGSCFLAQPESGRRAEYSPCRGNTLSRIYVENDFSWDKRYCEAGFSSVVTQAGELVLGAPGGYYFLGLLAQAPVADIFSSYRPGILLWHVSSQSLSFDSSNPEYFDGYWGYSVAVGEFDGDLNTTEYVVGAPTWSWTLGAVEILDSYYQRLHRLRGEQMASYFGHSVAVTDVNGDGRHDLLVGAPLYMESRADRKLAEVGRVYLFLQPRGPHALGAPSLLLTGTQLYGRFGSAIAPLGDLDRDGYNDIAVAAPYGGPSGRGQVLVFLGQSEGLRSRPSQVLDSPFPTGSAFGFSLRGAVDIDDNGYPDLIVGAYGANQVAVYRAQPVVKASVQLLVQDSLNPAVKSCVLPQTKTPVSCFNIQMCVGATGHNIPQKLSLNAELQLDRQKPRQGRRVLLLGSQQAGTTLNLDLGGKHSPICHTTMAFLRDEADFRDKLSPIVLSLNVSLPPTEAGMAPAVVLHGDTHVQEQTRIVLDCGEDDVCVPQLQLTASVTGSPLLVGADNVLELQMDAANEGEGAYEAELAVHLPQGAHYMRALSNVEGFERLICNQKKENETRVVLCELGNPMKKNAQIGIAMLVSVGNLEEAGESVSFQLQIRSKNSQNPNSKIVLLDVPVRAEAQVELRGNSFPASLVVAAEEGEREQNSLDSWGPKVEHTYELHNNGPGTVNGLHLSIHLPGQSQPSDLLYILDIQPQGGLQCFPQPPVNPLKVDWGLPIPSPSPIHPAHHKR
Integrin alpha-IIb/beta-3, sequence (P08514 891-1039 limits assumed): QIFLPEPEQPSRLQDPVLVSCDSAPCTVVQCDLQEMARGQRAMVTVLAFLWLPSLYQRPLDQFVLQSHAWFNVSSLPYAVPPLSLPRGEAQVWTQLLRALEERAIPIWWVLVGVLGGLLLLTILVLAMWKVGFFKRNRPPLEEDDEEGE

IC50: 4 nM
Compound: CC(C)[C@H]1NC(=O)c2cccc(c2F)CNC(=O)[C@H](CC(=O)O)NC(=O)CNC(=O)[C@H](CCCN=C(N)N)N(C)C1=O
